Key:
[1] = target: Replicase polyprotein 1ab (Severe acute respiratory syndrome coronavirus 2, UniProt P0DTD1)
[2] = target: Replicase polyprotein 1ab (Severe acute respiratory syndrome coronavirus 2) (UniProt P0DTD1); test: Inhibition of SARS-CoV-2 3CLPro using DabcylKNSTLQSGLRK-Edans as substrate at 5 uM preincubated for 30 mins followed by substrate addition measured after 20 mins by FRET assay relative to control; conditions: time 50.0 min
[3] = Cytotoxicity against mouse RAW264.7 cells assessed as cell viability at 1 uM incubated for 24 hrs by CCK8 assay relative to control; type: toxicity, cell-based; conditions: read-out: Activity
RAW264.7 [4] = test: Anti-inflammatory activity against mouse RAW264.7 cells assessed as inhibition of LPS-induced NO production at 10 uM preincubated for 1 hr followed by LPS treatment measured after 24 hrs relative to control; type: functional; conditions: time 25 hrs
[5] = Cytotoxicity against mouse RAW264.7 cells assessed as cell viability at 10 uM incubated for 24 hrs by CCK8 assay relative to control; type: toxicity, cell-based; conditions: read-out: Activity
RAW264.7 [6] = test: Anti-inflammatory activity against mouse RAW264.7 cells assessed as inhibition of LPS-induced NO production at 1 uM preincubated for 1 hr followed by LPS treatment measured after 24 hrs relative to control; type: functional; conditions: time 25 hrs
[7] = Cytotoxicity against human Huh-7 cells harboring viral replicon/EGFP/Neo genes assessed as cell viability at 50 uM incubated for 24 hrs by Cell Titer Glo assay relative to control; type: toxicity, cell-based; conditions: read-out: Activity
[8] = Cytotoxicity against human Huh-7 cells harboring viral replicon/EGFP/Neo genes assessed as cell viability at 5 uM incubated for 24 hrs by Cell Titer Glo assay relative to control; type: toxicity, cell-based; conditions: read-out: Activity
[9] = Cytotoxicity against mouse RAW264.7 cells assessed as cell viability at 50 uM incubated for 24 hrs by CCK8 assay relative to control; type: toxicity, cell-based; conditions: read-out: Activity
[10] = target: Replicase polyprotein 1ab (Severe acute respiratory syndrome coronavirus 2) (UniProt P0DTD1); test: Inhibition of SARS-CoV-2 3CLPro using DabcylKNSTLQSGLRK-Edans as substrate at 50 uM preincubated for 30 mins followed by substrate addition measured after 20 mins by FRET assay relative to control; conditions: time 50.0 min
[11] = Cytotoxicity against human Huh-7 cells harboring viral replicon/EGFP/Neo genes assessed as cell viability incubated for 24 hrs by Cell Titer Glo assay; type: toxicity, cell-based

Structure (SMILES) | IC50 [1] | inhibition [2] | viability at 24 h, 1 µM [3] | inhibition at 10 µM (RAW264.7 [4]) | viability at 24 h, 10 µM [5] | inhibition at 1 µM (RAW264.7 [6]) | viability at 24 h, 50 µM [7] | viability at 24 h, 5 µM [8] | viability at 24 h, 50 µM [9] | inhibition [10] | EC50 [1] | CC50 at 24 h [11]
O=C(/C=C/c1c(Cl)c(O)c(O)c(O)c1Cl)c1c(Cl)c(O)c(O)c(O)c1Cl | 115 nM | 0% | 51.2% | 76.9% | 37% | 22.9% | 99.3% | 111% | 82.4% | 0.2% | – | –
O=C(/C=C/c1c(Cl)c(O)c(O)c(O)c1Cl)c1ccccc1 | 143 nM | 1% | 95.5% | 39.5% | 66.8% | 14.6% | 64.2% | 105% | 96.9% | -0.3% | – | –
O=C(O)/C=C/c1c(Cl)c(O)c(O)c(O)c1Br | 3460 nM | 30.7% | 93.6% | -6.2% | 74% | 39.5% | – | – | 92.3% | 1.8% | – | –
O=C(/C=C/c1c(Cl)c(O)c(O)c(O)c1Cl)c1c(Cl)cc(Cl)cc1Cl | 404 nM | 1.2% | 78.7% | 79% | 58.5% | 33.3% | – | – | 13% | 0.7% | – | –
O=C(/C=C/c1c(Cl)c(O)c(O)c(O)c1Cl)c1ccc(Br)cc1 | 794 nM | 1% | 101% | 68.6% | 75.7% | 5.2% | – | – | 12.4% | -0.3% | – | –
O=C(/C=C/c1c(Cl)c(O)c(O)c(O)c1Cl)c1ccc(O)cc1 | 192 nM | 1.3% | 122% | 37.4% | 95.6% | 16.6% | 87.9% | 105% | 114% | 1.9% | – | –
O=C(/C=C/c1c(Cl)c(O)c(O)c(O)c1Cl)c1ccc(F)cc1Cl | 310 nM | 1.1% | 118% | 87.3% | 122% | 16.6% | 56.9% | 104% | 52.4% | 1.6% | – | –
O=C(/C=C/c1c(Cl)c(O)c(O)c(O)c1Cl)c1ccc(Cl)cc1 | 630 nM | 0.4% | 81.2% | 81.1% | 68.7% | 27% | – | – | 22.6% | 0.4% | – | –
O=C(O)/C=C/c1c(Cl)c(O)c(O)c(O)c1Cl | 840 nM | 3.1% | 93.8% | -14.6% | 92.4% | 27% | – | – | 82.1% | 2.9% | – | –
O=C(/C=C/c1c(Cl)c(O)c(O)c(O)c1Cl)c1c(Cl)cc(F)cc1Cl | 403 nM | 1.3% | 100% | 83.2% | 47.2% | 54.1% | – | – | 26.3% | 1.1% | – | –
O=C(/C=C/c1c(Cl)c(O)c(O)c(O)c1Cl)c1ccc([N+](=O)[O-])cc1 | 276 nM | 0.6% | 115% | 70.7% | 110% | 2.1% | 74.7% | 110% | 77.4% | -0.2% | – | –
O=C(/C=C/c1c(Cl)c(O)c(O)c(O)c1Cl)c1ccc(-c2ccc(F)cc2)cc1 | 1070 nM | -0.6% | 55.5% | 89.4% | 33.1% | 39.5% | 10.2% | 86.5% | 11.2% | 0.6% | – | –
O=C(/C=C/c1c(Cl)c(O)c(O)c(O)c1Cl)c1ccc(Cl)cc1Cl | 306 nM | 0.6% | 81% | 87.3% | 77.2% | 31.2% | – | – | 21.8% | 0.6% | – | –
O=C(/C=C/c1c(Cl)c(O)c(O)c(O)c1Cl)c1ccco1 | 95.5 nM | -1.1% | 82% | 62.4% | 82.2% | 45.7% | 70.7% | 102% | 94.7% | -0.7% | – | –
O=C(O)CCc1c(Cl)c(O)c(O)c(O)c1Cl | > 5000 nM | 76.4% | 130% | -6.2% | 80.8% | 20.8% | – | – | 89.7% | 1% | – | –
O=C(O)[C@H](O)Cc1ccc(O)c(O)c1 | 2150 nM | 5.3% | – | – | – | – | – | – | – | – | > 50000 nM | –
O=C(/C=C/c1c(Cl)c(O)c(O)c(O)c1Cl)c1ccc(F)cc1F | 131 nM | 1.1% | 108% | 79% | 91.8% | 35.3% | – | – | 65.8% | 1.1% | – | –
O=C(/C=C/c1c(Cl)c(O)c(O)c(O)c1Cl)c1ccc(Cl)c(Cl)c1 | 415 nM | -0.8% | 79.8% | 89.4% | 50% | 58.2% | – | – | 12.5% | -0.3% | – | –
O=C(/C=C/c1c(Cl)c(O)c(O)c(O)c1Cl)c1cccc(-c2ccc(Cl)c(Cl)c2)c1 | > 5000 nM | 79.3% | 69.1% | 70.7% | 29.4% | 16.6% | – | – | 4.2% | – | – | –
O=C(/C=C/c1cc(O)c(O)c(O)c1Cl)c1ccc(F)cc1 | 429 nM | 1.1% | 111% | 72.8% | 110% | -4.2% | 71.4% | 106% | 104% | 1.1% | – | –
O=C(/C=C/c1c(Cl)c(O)c(O)c(O)c1Cl)c1cccs1 | 216 nM | -1.8% | 99.1% | 76.9% | 82.8% | 35.3% | – | – | 112% | -0.9% | – | –
Oc1cc(CCCc2ccc(F)cc2)cc(O)c1O | 2400 nM | 18% | 94% | -14.6% | 108% | -45.7% | – | – | 93.6% | 2% | – | –
O=C(CCc1cc(O)c(O)c(O)c1)c1ccc(F)cc1 | 1770 nM | 21.4% | 117% | 54.1% | 103% | 20.8% | 92.7% | 110% | 87.6% | 6.3% | – | > 100000 nM
O=C(/C=C/c1c(Cl)c(O)c(O)c(O)c1Cl)c1ccccc1F | 237 nM | 2.3% | 89% | 87.3% | 84.6% | 43.7% | – | – | 72.8% | 3.1% | – | –
O=C(/C=C/c1c(Cl)c(O)c(O)c(O)c1Cl)c1ccc(C(F)(F)F)cc1 | 442 nM | 2% | 76.7% | 70.7% | 36.6% | 52% | 43.8% | 101% | 6.9% | 1.5% | – | –
CC(=O)Oc1c(Cl)c(/C=C/C(=O)c2ccc(F)cc2)c(Cl)c(OC(C)=O)c1OC(C)=O | 247 nM | 1.1% | 93.8% | 85.2% | 97.5% | 37.4% | 62% | 111% | 54.1% | 1% | – | > 50000 nM

Source: ChEMBL document CHEMBL6078649, “Discovery of Chalcone Derivatives as Bifunctional Molecules with Anti-SARS-CoV-2 and Anti-inflammatory Activities” (J Nat Prod, 2024)
